In patent US20250206730A1 (AUTOTELIC BIO INC., priority 2022, published 2025):

System: TGF-β signaling
Experiment: Assay for evaluating cellular inhibition of TGF-β signaling, 4T1 (SBE-luc2P) luciferase reporter
Format: cell-based
Conditions: Mus musculus, 4T1, 4T1 (SBE-luc2P) transient pool, 0.2% FBS, 2 h pre-treatment, TGF-β1 2 ng/mL 24 h; read-out: IC50 4T1 Cell
Description: [Example 2] Assay for Evaluating Cellular Inhibition of TGF-β Signaling
4T1 (SBE-luc2P) transient pool that have SBE-luc2P (hygro) expression plasmid or HEK293 (SBE reporter) stable cells (BPS bioscience) were seeded at 6×10^3 cells/well or 2.5×10^4 cells/well in 96-well plate, respectively. 4T1 (SBE-luc2P) transient pool were pre-treated with novel compound synthesized in Example 1 above in 0.2% FBS at approximately 60% confluence at 37° C. in 5% CO2. Also, HEK293 (SBE reporter) stable cells were pre-treated with each test compounds of formula in 0.5% FBS at approximately 80% confluence at 37° C. in 5% CO2. After 2 hours, cells were treated with TGF-β1 (2 ng/mL) for 24 h at 37° C. in 5% CO2. Cell lysates were prepared using Luciferase Assay (Promega) according to the manufacturer's instruction, and luminescence was measured by a plate reader, Biotek Synergy H1 (Vermont, USA).

Row | Compound | IC50 [nM]
1 | Nc1nc(-c2ccccc2)c(Oc2ccnc(Nc3cccnc3)c2)s1 [A-6, 4-Phenyl-5-((2-(pyridin-3-ylamino)pyridin-4-yl)oxy)thiazol-2-amine] | > 100
2 | Nc1nc(-c2ccccc2)c(Oc2ccnc(Nc3ccc(F)nc3)c2)s1 [A-7, 5-((2-((6-Fluoropyridin-3-yl)amino)pyridin-4-yl)oxy)-4-phenylthiazol-2-amine] | > 100
3 | Nc1nc(-c2ccccc2)c(Oc2ccnc(Nc3ccncc3)c2)s1 [A-8, 4-Phenyl-5-((2-(pyridin-4-ylamino)pyridin-4-yl)oxy)thiazol-2-amine] | > 100
4 | NC(=O)c1ccc(Nc2cc(Oc3sc(N)nc3-c3ccccc3)ccn2)cn1 [A-11, 5-((4-((2-Amino-4-phenylthiazol-5-yl)oxy)pyridin-2-yl)amino)picolinamide] | > 100
5 | CNS(=O)(=O)c1cccc(Nc2cc(Oc3sc(N)nc3-c3ccccc3)ccn2)c1 [A-12, 3-((4-((2-Amino-4-phenylthiazol-5-yl)oxy)pyridin-2-yl)amino)-N-methylbenzenesulfonamide] | < 100
6 | CN(C)S(=O)(=O)c1cccc(Nc2cc(Oc3sc(N)nc3-c3ccccc3)ccn2)c1 [A-13, 3-((4-((2-Amino-4-phenylthiazol-5-yl)oxy)pyridin-2-yl)amino)-N,N-dimethylbenzenesulfonamide] | < 100
7 | CS(=O)(=O)c1cccc(Nc2cc(Oc3sc(N)nc3-c3ccccc3)ccn2)c1 [A-15, 5-((2-((3-(Methylsulfonyl)phenyl)amino)pyridin-4-yl)oxy)-4-phenylthiazol-2-amine] | < 100
8 | Nc1nc(-c2ccccc2)c(Oc2ccnc(Nc3cccc(NS(=O)(=O)C4CC4)c3)c2)s1 [A-16, N-(3-((4-((2-Amino-4-phenylthiazol-5-yl)oxy)pyridin-2-yl)amino)phenyl)cyclopropanesulfonamide] | < 100
9 | Nc1nc(-c2ccccc2)c(Oc2ccnc(Nc3cccc(S(=O)(=O)C(F)(F)F)c3)c2)s1 [A-17, 4-Phenyl-5-((2-((3-((trifluoromethyl)sulfonyl)phenyl)amino)pyridin-4-yl)oxy)thiazol-2-amine] | > 100
10 | Nc1nc(-c2ccccc2)c(Oc2ccnc(Nc3cccc(S(=O)(=O)O)c3)c2)s1 [A-18, 3-((4-((2-Amino-4-phenylthiazol-5-yl)oxy)pyridin-2-yl)amino)benzenesulfonic acid] | > 100
11 | CS(=O)(=O)Cc1cccc(Nc2cc(Oc3sc(N)nc3-c3ccccc3)ccn2)c1 [A-19, 5-((2-((3-((Methylsulfonyl)methyl)phenyl)amino)pyridin-4-yl)oxy)-4-phenylthiazol-2-amine] | < 100
12 | Nc1nc(-c2ccccc2)c(Oc2ccnc(Nc3cccc(S(=O)(=O)NC4CC4)c3)c2)s1 [A-20, 3-((4-((2-Amino-4-phenylthiazol-5-yl)oxy)pyridin-2-yl)amino)-N-cyclopropylbenzenesulfonamide] | < 100
13 | Nc1nc(-c2ccccc2)c(Oc2ccnc(NCc3cccc(F)c3)c2)s1 [A-21, 5-((2-((3-Fluorobenzyl)amino)pyridin-4-yl)oxy)-4-phenylthiazol-2-amine] | > 100
14 | NC(=O)c1ccnc(Nc2cc(Oc3sc(N)nc3-c3ccccc3)ccn2)c1 [A-22, 2-((4-((2-Amino-4-phenylthiazol-5-yl)oxy)pyridin-2-yl)amino)isonicotinamide] | < 100
15 | CNC(=O)c1cccc(Nc2cc(Oc3sc(N)nc3-c3ccccc3)ccn2)c1 [A-23, 3-((4-((2-Amino-4-phenylthiazol-5-yl)oxy)pyridin-2-yl)amino)-N-methylbenzamide] | < 100
16 | COc1cc(Nc2cc(Oc3sc(N)nc3-c3ccccc3)ccn2)ccn1 [A-24, 5-((2-((2-Methoxypyridin-4-yl)amino)pyridin-4-yl)oxy)-4-phenylthiazol-2-amine] | < 100
17 | Nc1nc(-c2ccccc2)c(Oc2ccnc(NCc3ccccc3)c2)s1 [A-25, 5-((2-(Benzylamino)pyridin-4-yl)oxy)-4-phenylthiazol-2-amine] | > 100
18 | Nc1nc(-c2ccccc2)c(Oc2ccnc(NCc3ccncc3)c2)s1 [A-26, 4-Phenyl-5-((2-((pyridin-4-ylmethyl)amino)pyridin-4-yl)oxy)thiazol-2-amine] | > 100
19 | Nc1nc(-c2ccccc2)c(Oc2ccnc(Nc3ccnc(Cl)c3)c2)s1 [A-27, 5-((2-((2-Chloropyridin-4-yl)amino)pyridin-4-yl)oxy)-4-phenylthiazol-2-amine] | > 100
20 | Nc1nc(-c2ccccc2)c(Oc2ccnc(NCc3cccnc3)c2)s1 [A-28, 4-Phenyl-5-((2-((pyridin-3-ylmethyl)amino)pyridin-4-yl)oxy)thiazol-2-amine] | > 100
21 | Nc1nc(-c2ccccc2)c(Oc2ccnc(Nc3ccnc(F)c3)c2)s1 [A-30, 5-((2-((2-Fluoropyridin-4-yl)amino)pyridin-4-yl)oxy)-4-phenylthiazol-2-amine] | > 100

Row | Compound | IC50 [nM]
22 | COc1ccc(Nc2cc(Oc3sc(N)nc3-c3ccccc3)ccn2)cn1 [A-31, 5-((2-((6-Methoxypyridin-3-yl)amino)pyridin-4-yl)oxy)-4-phenylthiazol-2-amine] | > 100
23 | NC(=O)c1cncc(Nc2cc(Oc3sc(N)nc3-c3ccccc3)ccn2)c1 [A-32, 5-((4-((2-Amino-4-phenylthiazol-5-yl)oxy)pyridin-2-yl)amino)nicotinamide] | > 100
24 | NC(=O)c1cccc(Nc2cc(Oc3sc(N)nc3-c3ccccc3)ccn2)n1 [A-33, 6-((4-((2-Amino-4-phenylthiazol-5-yl)oxy)pyridin-2-yl)amino)picolinamide] | < 100
25 | CCS(=O)(=O)c1cccc(Nc2cc(Oc3sc(N)nc3-c3ccccc3)ccn2)c1 [A-34, 5-((2-((3-(Ethylsulfonyl)phenyl)amino)pyridin-4-yl)oxy)-4-phenylthiazol-2-amine] | < 100
26 | Nc1nc(-c2ccccc2)c(Oc2ccnc(Nc3ccc(Cl)nc3)c2)s1 [A-35, 5-((2-((6-Chloropyridin-3-yl)amino)pyridin-4-yl)oxy)-4-phenylthiazol-2-amine] | > 100
27 | Nc1nc(-c2ccccc2)c(Oc2ccnc(Nc3cccc(NS(=O)(=O)C(F)(F)F)c3)c2)s1 [A-36, N-(3-((4-((2-Amino-4-phenylthiazol-5-yl)oxy)pyridin-2-yl)amino)phenyl)-1,1,1-trifluoromethanesulfonamide] | < 100
28 | Cn1cc(Nc2cc(Oc3sc(N)nc3-c3ccccc3)ccn2)cn1 [A-37, 5-((2-((1-Methyl-1H-pyrazol-4-yl)amino)pyridin-4-yl)oxy)-4-phenylthiazol-2-amine] | > 100
29 | Nc1nc(-c2ccccc2)c(Oc2ccnc(Nc3cn[nH]c3)c2)s1 [A-38, 5-((2-((1H-Pyrazol-4-yl)amino)pyridin-4-yl)oxy)-4-phenylthiazol-2-amine] | > 100
30 | CS(=O)(=O)n1cc(Nc2cc(Oc3sc(N)nc3-c3ccccc3)ccn2)cn1 [A-62, 5-((2-((1-(Methylsulfonyl)-1H-pyrazol-4-yl)amino)pyridin-4-yl)oxy)-4-phenylthiazol-2-amine] | > 100
31 | Cc1nc(-c2ccccc2)c(Oc2ccnc(Nc3cccc(C(=O)N(C)C)c3)c2)s1 [A-67, N,N-Dimethyl-3-((4-((2-methyl-4-phenylthiazol-5-yl)oxy)pyridin-2-yl)amino)benzamide] | < 100
32 | CNS(=O)(=O)c1cccc(Nc2cc(Oc3sc(C)nc3-c3ccccc3)ccn2)c1 [A-73, N-Methyl-3-((4-((2-methyl-4-phenylthiazol-5-yl)oxy)pyridin-2-yl)amino)benzenesulfonamide] | < 100
33 | Cc1nc(-c2ccccc2)c(Oc2ccnc(Nc3cccc(S(=O)(=O)N(C)C)c3)c2)s1 [A-74, N,N-Dimethyl-3-((4-((2-methyl-4-phenylthiazol-5-yl)oxy)pyridin-2-yl)amino)benzenesulfonamide] | < 100
34 | Cc1nc(-c2ccccc2)c(Oc2ccnc(Nc3cccc(NS(=O)(=O)C4CC4)c3)c2)s1 [A-75, N-(3-((4-((2-Methyl-4-phenylthiazol-5-yl)oxy)pyridin-2-yl)amino)phenyl)cyclopropanesulfonamide] | < 100
35 | Cc1nc(-c2ccccc2)c(Oc2ccnc(Nc3cccc(S(=O)(=O)NC4CC4)c3)c2)s1 [A-76, N-Cyclopropyl-3-((4-((2-methyl-4-phenylthiazol-5-yl)oxy)pyridin-2-yl)amino)benzenesulfonamide] | < 100
36 | CCS(=O)(=O)c1cccc(Nc2cc(Oc3sc(C)nc3-c3ccccc3)ccn2)c1 [A-77, N-(3-(Ethylsulfonyl)phenyl)-4-((2-methyl-4-phenylthiazol-5-yl)oxy)pyridin-2-amine] | < 100
37 | Cc1nc(-c2ccccc2)c(Oc2ccnc(Nc3cccc(CS(C)(=O)=O)c3)c2)s1 [A-79, 4-((2-Methyl-4-phenylthiazol-5-yl)oxy)-N-(3-((methylsulfonyl)methyl)phenyl)pyridin-2-amine] | < 100
38 | Cc1nc(-c2ccccc2)c(Oc2ccnc(NCc3ccncc3)c2)s1 [A-80, 4-((2-Methyl-4-phenylthiazol-5-yl)oxy)-N-(pyridin-4-ylmethyl)pyridin-2-amine] | > 100
39 | Cc1nc(-c2ccccc2)c(Oc2ccnc(NCc3cccnc3)c2)s1 [A-81, 4-((2-Methyl-4-phenylthiazol-5-yl)oxy)-N-(pyridin-3-ylmethyl)pyridin-2-amine] | > 100
40 | Cc1nc(-c2ccccc2)c(Oc2ccnc(Nc3cccnc3)c2)s1 [A-82, 4-((2-Methyl-4-phenylthiazol-5-yl)oxy)-N-(pyridin-3-yl)pyridin-2-amine] | > 100
41 | Cc1nc(-c2ccccc2)c(Oc2ccnc(Nc3ccc(F)nc3)c2)s1 [A-83, N-(6-Fluoropyridin-3-yl)-4-((2-methyl-4-phenylthiazol-5-yl)oxy)pyridin-2-amine] | > 100
